For this test, the system named is BDF1 mice, P388 leukemia ip, median survival T/C. Kind of test: NCI In Vivo Anticancer Drug Screen. Data for tumor model P388 Leukemia (intraperitoneal) in B6D2F1 (BDF1) mice. The settings on record: endpoint: median survival time, higher = longer survival. The method in brief: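 Compound-treated tumour-bearing mice were compared with vehicle-treated controls. Survival was recorded, and the value is the treated-group measurement divided by the control-group measurement (T/C).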

The mark [1] stands for this setting: dose: 100.0 mg/kg/injection, schedule: Q01DX009 (ip), vehicle: saline.
Setting [2] is: dose: 100.0 mg/kg/injection, schedule: Q04DX003 (ip), vehicle: saline.
The mark [3] stands for this setting: dose: 200.0 mg/kg/injection, schedule: Q01DX009 (ip), vehicle: saline.
Setting [4] is: dose: 100.0 mg/kg/injection, schedule: Q04DX003 (ip), vehicle: saline with Tween-80.
[5] abbreviates: dose: 200.0 mg/kg/injection, schedule: Q04DX003 (ip), vehicle: saline with Tween-80.
[6] abbreviates: dose: 25.0 mg/kg/injection, schedule: Q01DX009 (ip), vehicle: saline with Tween-80.
Setting [7] is: dose: 50.0 mg/kg/injection, schedule: Q01DX009 (ip), vehicle: saline with Tween-80.

Consider 16 molecules from PubChem BioAssay AID328 (DTP/NCI, 2004).

“And” between values parts separate entries of the source, which are not always exact repeats. Equal values may be shown once. Inconclusive results and toxic doses are left out.

As for `COc1cc(O)c(C(=O)c2ccccc2)cc1S(=O)(=O)O`, the T/C is 110 % of control under setting [1]; 109 % of control under setting [2]; 110 % of control under setting [3]; 100 % of control (dose: 200.0 mg/kg/injection, schedule: Q04DX003 (ip), vehicle: saline); 110 % of control (dose: 400.0 mg/kg/injection, schedule: Q01DX009 (ip), vehicle: saline); 100 % of control (dose: 400.0 mg/kg/injection, schedule: Q04DX003 (ip), vehicle: saline).
On to `OCCN1CCN(CC/C=C2/c3ccccc3Sc3ccc(Cl)cc32)CC1`, for which the T/C (dose: 5.56 mg/kg/injection, schedule: Q01DX009 (ip), vehicle: saline) was 108 % of control; the T/C (dose: 8.33 mg/kg/injection, schedule: Q01DX009 (ip), vehicle: saline) is 108 % of control; the T/C (dose: 12.5 mg/kg/injection, schedule: Q01DX009 (ip), vehicle: saline) is 120 % of control; the T/C (dose: 25.0 mg/kg/injection, schedule: Q01DX009 (ip), vehicle: saline) is 113 % of control; the T/C (dose: 33.0 mg/kg/injection, schedule: Q04DX003 (ip), vehicle: saline) was 150 % of control.
As to `CC1=C(C)CC2C(=O)C(C(O)CC(C)C)=CC(=O)C2C1` (stereo not given), the T/C reads like this: under setting [4], 100 % of control; under setting [5], 113 % of control; (dose: 400.0 mg/kg/injection, schedule: Q04DX003 (ip), vehicle: saline with Tween-80) 93 % of control.
For the molecule `Cc1cc2c(c3ncccc13)OCN(Cc1ccc(Cl)cc1)C2`, the T/C is, setting by setting: (dose: 12.5 mg/kg/injection, schedule: Q01DX009 (ip), vehicle: saline with Tween-80) 104 % of control; under setting [6], 100 % of control; under setting [7], 91 % of control.
Turning to `CCCCCCCCCCCCCCCCCSCCCCCSCCCCCCCCCCCCCCCCC`, the T/C is 90 % of control (dose: 100.0 mg/kg/injection, schedule: Q01DX001 (ip), vehicle: saline with Tween-80) and 86 % of control (dose: 400.0 mg/kg/injection, schedule: Q01DX001 (ip), vehicle: saline with Tween-80).
On to `C=Cn1ccnc1C.C=Cn1ccnc1C.CC(=O)CC(C)=O.CC(=O)CC(C)=O.[Ni]`, for which the T/C (dose: 12.5 mg/kg/injection, schedule: Q04DX002 (ip), vehicle: saline) was 119 % of control; the T/C (dose: 25.0 mg/kg/injection, schedule: Q04DX002 (ip), vehicle: saline) was 117 % of control; the T/C (dose: 50.0 mg/kg/injection, schedule: Q04DX002 (ip), vehicle: saline) is 112 % of control.
With `O=c1oc2c(CN3CCCC3)c(O)ccc2c2c1CCCC2`, the T/C is 98 % of control (dose: 1.0 mg/kg/injection, schedule: Q01DX009 (ip), vehicle: Klucel (hydroxypropylcellulose) (HPC)); 109 % of control (dose: 2.0 mg/kg/injection, schedule: Q01DX009 (ip), vehicle: Klucel (hydroxypropylcellulose) (HPC)); 104 % of control (dose: 4.0 mg/kg/injection, schedule: Q01DX009 (ip), vehicle: Klucel (hydroxypropylcellulose) (HPC)); 109 % of control (dose: 8.0 mg/kg/injection, schedule: Q01DX009 (ip), vehicle: Klucel (hydroxypropylcellulose) (HPC)); 98 % of control (dose: 16.0 mg/kg/injection, schedule: Q01DX009 (ip), vehicle: Klucel (hydroxypropylcellulose) (HPC)); 99 % of control (dose: 32.0 mg/kg/injection, schedule: Q01DX009 (ip), vehicle: Klucel (hydroxypropylcellulose) (HPC)).
As to `Cc1ncc([N+](=O)[O-])n1CCSC(N)=O`, the T/C was 120 % of control under setting [4] and 160 % of control under setting [5].
With `Cc1ccc(-c2nc3sccn3c2/C=N/NC(N)=S)cc1`, the T/C by setting is: (dose: 100.0 mg/kg/injection, schedule: Q01DX001 (ip), vehicle: Klucel (hydroxypropylcellulose) (HPC)) 100 % of control; (dose: 400.0 mg/kg/injection, schedule: Q01DX001 (ip), vehicle: Klucel (hydroxypropylcellulose) (HPC)) 95 % of control.
For the molecule `Clc1ccc(-c2cc(=[N+]3CCOCC3)ss2)cc1`, the T/C was 118 % of control (dose: 12.5 mg/kg/injection, schedule: Q01DX009 (ip), vehicle: water); 102 % of control (dose: 25.0 mg/kg/injection, schedule: Q01DX009 (ip), vehicle: water); 94 % of control (dose: 25.0 mg/kg/injection, schedule: Q04DX003 (ip), vehicle: water); 111 % of control (dose: 50.0 mg/kg/injection, schedule: Q01DX009 (ip), vehicle: water); 100 % of control (dose: 50.0 mg/kg/injection, schedule: Q04DX003 (ip), vehicle: water); 111 % of control (dose: 100.0 mg/kg/injection, schedule: Q01DX009 (ip), vehicle: water). Moreover, the T/C was 90 % of control (dose: 100.0 mg/kg/injection, schedule: Q04DX003 (ip), vehicle: water) and 110 % of control (dose: 200.0 mg/kg/injection, schedule: Q04DX003 (ip), vehicle: water).
`CC1C(=O)CC(=O)C1=O` (stereo not given): the T/C by setting is: (dose: 50.0 mg/kg/injection, schedule: Q01DX009 (ip), vehicle: saline) 100 % of control; under setting [1], 104 % of control; under setting [3], 104 % of control.
For `Nc1ccccc1C(=O)OCCc1ccccc1`, the T/C is 100 % of control (dose: 100.0 mg/kg/injection, schedule: Q01DX009 (ip), vehicle: Klucel (hydroxypropylcellulose) (HPC)); 95 % of control (dose: 100.0 mg/kg/injection, schedule: Q04DX003 (ip), vehicle: Klucel (hydroxypropylcellulose) (HPC)); 91 % of control (dose: 200.0 mg/kg/injection, schedule: Q04DX003 (ip), vehicle: Klucel (hydroxypropylcellulose) (HPC)); 94 % of control (dose: 266.0 mg/kg/injection, schedule: Q01DX009 (ip), vehicle: Klucel (hydroxypropylcellulose) (HPC)); 110 % of control (dose: 400.0 mg/kg/injection, schedule: Q01DX009 (ip), vehicle: Klucel (hydroxypropylcellulose) (HPC)); 95 % of control (dose: 400.0 mg/kg/injection, schedule: Q04DX003 (ip), vehicle: Klucel (hydroxypropylcellulose) (HPC)). In addition, the T/C (dose: 600.0 mg/kg/injection, schedule: Q01DX009 (ip), vehicle: Klucel (hydroxypropylcellulose) (HPC)) was 100 % of control.
With `C(CC1CO1)CC1OC1CC1CO1` (stereo not given), the T/C was 113 % of control (dose: 65.0 mg/kg/injection, schedule: Q04DX003 (ip), vehicle: saline); 113 % of control (dose: 67.0 mg/kg/injection, schedule: Q04DX003 (ip), vehicle: saline with Tween-80); 122 % of control under setting [4]; 109 % of control under setting [2]; 181 % of control (dose: 150.0 mg/kg/injection, schedule: Q04DX003 (ip), vehicle: saline with Tween-80); 154 % of control (dose: 150.0 mg/kg/injection, schedule: Q04DX003 (ip), vehicle: saline). The T/C (dose: 225.0 mg/kg/injection, schedule: Q04DX003 (ip), vehicle: saline with Tween-80) was 181 % of control.
Take `CCCCOCN(COCCCC)c1ccccc1Cl`: the T/C runs as follows: under setting [7], 116 % of control; (dose: 100.0 mg/kg/injection, schedule: Q01DX009 (ip), vehicle: saline with Tween-80) 107 % of control and 121 % of control.
Regarding `CCC/C(=N\Nc1ccc([N+](=O)[O-])cc1[N+](=O)[O-])c1ccccc1`, the T/C (dose: 25.0 mg/kg/injection, schedule: Q04DX003 (ip), vehicle: saline with Tween-80) is 90 % of control; the T/C (dose: 50.0 mg/kg/injection, schedule: Q04DX003 (ip), vehicle: saline with Tween-80) is 100 % of control; the T/C under setting [4] was 109 % of control.
`Cn1c(=O)oc2ccc(Cl)cc21`: the T/C under setting [6] was 122 % of control; the T/C under setting [7] is 115 % of control; the T/C (dose: 200.0 mg/kg/injection, schedule: Q01DX009 (ip), vehicle: saline with Tween-80) was 91 % of control.
